Where a name gives a salt, the structure may show the parent alone. Read-outs that look alike come from different tables or passages of the source.
System: PDE4 enzyme of human origin
Assay: PDE4-inhibiting activity on an enzyme preparation obtained from the U937 cell line
Format: biochemical
Description: In the case of the PDE4 enzymes, this value is compared with that of rolipram, a specific PDE4 inhibitor. […] Measurement of the enzyme activity of the different types of PDE, and especially of the PDE4 enzymes, is then carried out according to a method adapted from W. J. Thompson, ibidem.

Structure (SMILES) | IC50 [nM] | IC50 (listed as 7B) [nM]
Cc1cc2c3c(c1)C(c1ccccc1)=NC(n1c(C)nc4cc(C(=O)O)ccc4c1=O)C(=O)N3CC2 (racemic) [Example 7, 2-methyl-3-(9-methyl-4-oxo-1-phenyl-3,4,6,7-tetrahydro-[1,4]diazepino[6,7,1-hi]indol-3-yl)-4-oxo-3,4-dihydroquinazoline-7-carboxylic acid] | 52 | 57
Cc1cc2c3c(c1)C(c1ccccc1)=N[C@H](n1c(C)nc4cc(C(=O)O)ccc4c1=O)C(=O)N3CC2 [7D(R), (3R)-2-methyl-3-(9-methyl-4-oxo-1-phenyl-3,4,6,7-tetrahydro[1,4]diazepino[6,7,1-hi]indol-3-yl)-4-oxo-3,4-dihydroquinazoline-7-carboxylic acid] | 982 | 
Cc1cc2c3c(c1)C(c1ccccc1)=N[C@@H](n1c(C)nc4cc(C(=O)O)ccc4c1=O)C(=O)N3CC2 [7E(S), (3S)-2-methyl-3-(9-methyl-4-oxo-1-phenyl-3,4,6,7-tetrahydro[1,4]diazepino[6,7,1-hi]indol-3-yl)-4-oxo-3,4-dihydroquinazoline-7-carboxylic acid] | 35 | 
Cc1nc2ccccc2c(=O)n1[C@@H]1N=C(c2ccccc2)c2cccc3c2N(CC3)C1=O [Example 1, (3S)-3-(2-methyl-4-oxo-4H-quinazolin-3-yl)-1-phenyl-6,7-dihydro-3H[1,4]diazepino[6,7,1-hi]indol-4-one] | 448 | 
Cc1cc2c3c(c1)C(c1ccccc1)=NC(n1c(C)nc4ccccc4c1=O)C(=O)N3CC2 (stereo not shown) [Example 2, 9-methyl-3-(2-methyl-4-oxo-4H-quinazolin-3-yl)-1-phenyl-6,7-dihydro-3H-[1,4]diazepino [6,7,1-hi] indol-4-one] | 146 | 
COc1cc2c3c(c1)C(c1ccccc1)=NC(n1c(C)nc4ccccc4c1=O)C(=O)N3CC2 (stereo not shown) [Example 2A, 9-methoxy-3-(2-methyl-4-oxo-4H-quinazolin-3-yl)-1-phenyl-6,7-dihydro-3H-[1,4]diazepino [6,7,1-hi] indol-4-one] | 183 | 
COC(=O)c1ccc2c(=O)n(C3N=C(c4ccccc4)c4cc(OC)cc5c4N(CC5)C3=O)c(C)nc2c1 (stereo not shown) [Example 2B, Methyl 2-methyl-3-(9-methoxy-4-oxo-1-phenyl-3,4,6,7-tetrahydro[1,4]diazepino[6,7,1-hi]indol-3-yl)-4-oxo-3,4-dihydroquinazoline-7-carboxylate] | 67 | 
COc1cc2c3c(c1)C(c1ccccc1)=NC(n1c(C)nc4cc(C(=O)O)ccc4c1=O)C(=O)N3CC2 (stereo not shown) [Example 2C, 2-methyl-3-(9-methoxy-4-oxo-1-phenyl-3,4,6,7-tetrahydro[1,4]diazepino[6,7,1-hi]indol-3-yl)-4-oxo-3,4-dihydroquinazoline-7-carboxylic acid] | 108 | 
Cc1cc2c3c(c1)C(c1ccccc1)=N[C@@H](n1c(C)nc4cccc(C)c4c1=O)C(=O)N3CC2 [Example 3, (3S)-9-methyl-3-(2,5-dimethyl-4-oxo-4H-quinazolin-3-yl)-1-ph enyl-6,7-dihydro-3H-[1,4]-diazepino[6,7,1-hi]indol-4-one] | 141 | 
Cc1cc2c3c(c1)C(c1ccccc1)=N[C@@H](n1c(C)nc4ccc(C)cc4c1=O)C(=O)N3CC2 [Example 4, (3S)-9-methyl-3-(2,6-dimethyl-4-oxo-4H-quinazolin-3-yl)-1-phenyl-6,7-dihydro-3H-[1,4]diazepino[6,7,1-hi]indol-4-one] | 553 | 
Cc1cc2c3c(c1)C(c1ccccc1)=N[C@@H](n1c(C)nc4c(C)cccc4c1=O)C(=O)N3CC2 [Example 5, (3S)-9-methyl-3-(2,8-dimethyl-4-oxo-4H-quinazolin-3-yl)-1-ph enyl-6,7-dihydro-3H-[1,4]diazepino[6,7,1-hi]indol-4-one] | 832 | 
COc1cccc2nc(C)n(C3N=C(c4ccccc4)c4cc(C)cc5c4N(CC5)C3=O)c(=O)c12 (stereo not shown) [Example 6, 3-(5-methoxy-2-methyl-4-oxo-4H-quinazolin-3-yl)-9-methyl-1-phenyl-6,7-dihydro-3H-[1,4]diazepino[6,7,1-hi]indol-4-one] | 3020 | 
COc1ccc2c(=O)n(C3N=C(c4ccccc4)c4cc(C)cc5c4N(CC5)C3=O)c(C)nc2c1 (stereo not shown) [Example 6A, 3-(7-methoxy-2-methyl-4-oxo-4H-quinazolin-3-yl)-9-methyl-1-phenyl-6,7-dihydro-3H-[1,4]-diazepino[6,7,1-hi]indol-4-one] | 133 | 
COc1ccc2nc(C)n(C3N=C(c4ccccc4)c4cc(C)cc5c4N(CC5)C3=O)c(=O)c2c1 (stereo not shown) [Example 6B, 3-(6-methoxy-2-methyl-4-oxo-4H-quinazolin-3-yl)-9-methyl-1-phenyl-6,7-dihydro-3H-[1,4]-diazepino[6,7,1-hi]indol-4-one] | 1420 | 
Cc1cc2c3c(c1)C(c1ccccc1)=NC(n1c(C)nc4ccc(Br)cc4c1=O)C(=O)N3CC2 (stereo not shown) [Example 6C, 3-(6-bromo-2-methyl-4-oxo-4H-quinazolin-3-yl)-9-methyl-1-phenyl-6,7-dihydro-3H-[1,4]diazepino-[6,7,1-hi]indol-4-one] | 838 | 
Cc1cc2c3c(c1)C(c1ccccc1)=NC(n1c(C)nc4cccc(CO)c4c1=O)C(=O)N3CC2 (stereo not shown) [Example 6D, 3-(5-hydroxymethyl-2-methyl-4-oxo-4H-quinazolin-3-yl)-9-methyl-1-phenyl-6,7-dibydro-3H-[1,4]-diazepino[6,7,1-hi]indol-4-one] | 372 | 
Cc1cc2c3c(c1)C(c1ccccc1)=NC(n1c(C)nc4cccc(C(=O)OC(C)(C)C)c4c1=O)C(=O)N3CC2 (stereo not shown) [Example 6E, tert-Butyl 2-methyl-3-(9-methyl-4-oxo-1-phenyl-3,4,6,7-tetrahydro-[1,4]diazepino[6,7,1-hi]indol-3-yl)-4-oxo-3,4-dihydroquinazoline-5-carboxylate] | > 100000 | 
Cc1cc2c3c(c1)C(c1ccccc1)=NC(n1c(C)nc4cccc(C(=O)O)c4c1=O)C(=O)N3CC2 (stereo not shown) [Example 6F, 2-methyl-3-(9-methyl-4-oxo-1-phenyl-3,4,6,7-tetrahydro[1,4]diazepino[6,7,1-hi]indol-3-yl)-4-oxo-3,4-dihydroquinazoline-5-carboxylic acid] | > 100000 | 
COC(=O)c1ccc2c(=O)n(C3N=C(c4ccccc4)c4cc(C)cc5c4N(CC5)C3=O)c(C)nc2c1 (stereo not shown) [Example 7A, Methyl 2-methyl-3-(9-methyl-4-oxo-1-phenyl-3,4,6,7-tetrahydro-[1,4]diazepino[6,7,1-hi]indol-3-yl)-4-oxo-3,4-dihydroquinazoline-7-carboxylate] | 157 | 
Cc1cc2c3c(c1)C(c1ccccc1)=NC(n1c(C)nc4cc(C(=O)O)ccc4c1=O)C(=O)N3CC2 [Example 7C, Salt of 2-methyl-3-(9-methyl-4-oxo-1-phenyl-3,4,6,7-tetrahydro[1,4]diazepino[6,7,1-hi]indol-3-yl)-4-oxo-3,4-dihydroquin azoline-7-carboxylic acid with D-glucamine] | 66 | 
Cc1cc2c3c(c1)C(c1ccccc1)=NC(n1c(C)nc4cc(C(N)=O)ccc4c1=O)C(=O)N3CC2 (stereo not shown) [Example 8, 2-methyl-3-(9-methyl-4-oxo-1-phenyl-3,4,6,7-tetrahydro-[1,4]diazepino[6,7,1-hi]indol-3-yl)-4-oxo-3,4-dihydroquinazoline-7-carboxamide] | 50 | 
Cc1cc2c3c(c1)C(c1ccccc1)=NC(n1c(C)nc4cc(-c5nnn[nH]5)ccc4c1=O)C(=O)N3CC2 (stereo not shown) [Example 8B] | 28 | 
CNC(=O)c1ccc2c(=O)n(C3N=C(c4ccccc4)c4cc(C)cc5c4N(CC5)C3=O)c(C)nc2c1 (stereo not shown) [Example 9, 2-methyl-3-(9-methyl-4-oxo-1-phenyl-3,4,6,7-tetrahydro-[1,4]diazepino[6,7,1-hi]indol-3-yl)-4-oxo-3,4-dihydroquinazoline-7-(N-methylcarboxamide)] | 63 | 
Cc1cc2c3c(c1)C(c1ccccc1)=NC(n1c(C)nc4cc(C(=O)N(C)C)ccc4c1=O)C(=O)N3CC2 (stereo not shown) [Example 9A, 2-methyl-3-(9-methyl-4-oxo-1-phenyl-3,4,6,7-tetrahydro[1,4]diazepino[6,7,1-hi]indol-3-yl)-4-oxo-3,4dihydroquinazoline-7-N-dimethylearboxamide] | 122 | 
Cc1cc2c3c(c1)C(c1ccccc1)=NC(n1c(C)nc4cc(C(=O)NCCN5CCOCC5)ccc4c1=O)C(=O)N3CC2 (stereo not shown) [Example 9B, 2-methyl-3-(9-methyl-4-oxo-1-phenyl-3,4,6,7-tetrahydro[1,4]diazepino[6,7,1-hi]indol-3-yl) 4-oxo-3,4-dihydroquinazoline-7-carboxylic acid (2-morpholin-4-yl-ethyl)amide] | 95 | 
Cc1cc2c3c(c1)C(c1ccccc1)=NC(n1c(C)nc4cc(C(=O)NCCCN5CCOCC5)ccc4c1=O)C(=O)N3CC2 (stereo not shown) [Example 9C] | 69 | 
Cc1cc2c3c(c1)C(c1ccccc1)=NC(n1c(C)nc4cc(C(=O)NCCN)ccc4c1=O)C(=O)N3CC2 (stereo not shown) [Example 9D, 2-methyl-3-(9-methyl-4-oxo-1-phenyl-3,4,6,7-tetrahydro[1,4]diazepino[6,7,1-hi]indol-3-yl)-4-oxo-3,4-dihydroquinazoline-7-(2-amino)ethylcarboxamide] | 119 | 
Cc1cc2c3c(c1)C(c1ccccc1)=NC(n1c(C)nc4cc(C(=O)N5CCN(CCO)CC5)ccc4c1=O)C(=O)N3CC2 (stereo not shown) [Example 9F, 3-{7-[4-(2-hydroxyethyl)piperazine-1-carbonyl]-2-methyl-4-oxo-4H-quinazolin-3-yl}-9-methyl-1-phenyl-6,7-dihydro-3H-[1,4]diazepino[6,7,1-hi]indol-4-one] | 192 | 
Cc1cc2c3c(c1)C(c1ccccc1)=NC(n1c(C)nc4cc(C(=O)N5CCN(CCO)CC5)ccc4c1=O)C(=O)N3CC2 (stereo not shown) [Example 9G] | 137 | 
COC(=O)[C@H](CCCCN)NC(=O)c1ccc2c(=O)n(C3N=C(c4ccccc4)c4cc(C)cc5c4N(CC5)C3=O)c(C)nc2c1 (stereo partly drawn) [Example 9I, Methyl (2S)-6-amino-2-{[2-methyl-3-(9-methyl-4-oxo-1-phenyl-3,4,6,7-tetrahydro-[1,4]diazepino[6,7,1-hi]indol-3-yl)-4-oxo-3,4-dihydroquinazolin-7-carbonyl]amino}hexanoate] | 119 | 

— patent publication US6239130A, “Phosphodiesterase 4-inhibiting diazepinoindolones” (Warner-Lambert Company, priority 1997, dated 2001)
